# Reference: article PMC4134938 (Clinical cancer research : an official journal of the …, 2009)
# Where two headings read alike, the source gives them in different places.
# Legend:
# [1] = 5-FU plasma pharmacokinetics; type: in vivo, human; settings: for AUC / Cmax / Css: plasma 5-FU, mean ± SD
# [2] = tested on: thymidylate synthase (TS); settings: ref [28], [29], cited from earlier work
# [3] = read-out: Cmax of vorinostat; single-agent 900 mg/m^2 i.v. over 2 hours x 3 days every 3 weeks; ref [26]; cited from earlier work
# [4] = tested on: patients with refractory colorectal cancer; assay: Toxicity assessment per NCI CTC 3.0; type: in vivo, human
# [5] = tested on: thymidylate synthase (TS); assay: TS tumor expression by immunohistochemistry in paired liver metastasis biopsies; type: in vivo, human; settings: for Change in TS staining intensity (IHC): day 4 vs pre-treatment
# [6] = tested on: metastatic colorectal cancer; assay: Antitumor response by CT; type: in vivo, human; settings: 21 assessable patients, vorinostat + FOLFOX
# [7] = Vorinostat serum pharmacokinetics; type: in vivo, human; settings: for AUC / Tmax / half-life / Cmax: human, po
# [8] = tested on: patients with refractory colorectal cancer
# [9] = tested on: thymidylate synthase (TS); assay: TS tumor gene expression by RT-PCR in paired biopsies; type: in vivo, human
# [10] = maintenance dose 2400 mg/m^2, vorinostat 100 mg
# [11] = maintenance dose 2400 mg/m^2, vorinostat 200 mg
# [12] = maintenance dose 2400 mg/m^2, vorinostat 300 mg
# [13] = maintenance dose 2400 mg/m^2, vorinostat 400 mg
# [14] = DL4 vorinostat 400 mg BID+FOLFOX, 4 patients, all cycles
# [15] = all dose levels, 21 patients, vorinostat + FOLFOX
# [16] = serum, 100 mg, vorinostat 100 mg PO BID, Day 1, serum, mean
# [17] = serum, 200 mg, vorinostat 200 mg PO BID, Day 5 (with FOLFOX), serum, mean
# [18] = serum, 300 mg, vorinostat 300 mg PO BID, Day 1, serum, mean
# [19] = serum, 300 mg, vorinostat 300 mg PO BID, Day 5 (with FOLFOX), serum, mean
# [20] = serum, 400 mg, vorinostat 400 mg PO BID, Day 1, serum, mean
# [21] = serum, 400 mg, vorinostat 400 mg PO BID, Day 5 (with FOLFOX), serum, mean
smiles,measurement,setting,value
"O=c1[nH]cc(F)c(=O)[nH]1 [5-FU, 5-Fluorouracil]",AUC,[1]; [10],15.3 ± 5.7 ηg*hr/mL
same,Cmax,[1]; [10],5.03 ± 4.39 ηg/mL
same,Css,[1]; [10],0.287 ± 0.044 ηg/mL
same,AUC,[1]; [11],24 ± 9.11 ηg*hr/mL
same,Cmax,[1]; [11],13.1 ± 7.96 ηg/mL
same,Css,[1]; [11],0.274 ± 0.045 ηg/mL
same,AUC,[1]; [12],68.7 ± 88.1 ηg*hr/mL
same,Cmax,[1]; [12],24.5 ± 14.5 ηg/mL
same,Css,[1]; [12],0.396 ± 0.159 ηg/mL
same,AUC,[1]; [13],46.7 ± 10.6 ηg*hr/mL
same,Cmax,[1]; [13],26.8 ± 11.4 ηg/mL
same,Css,[1]; [13],0.432 ± 0.077 ηg/mL
same,median 5-FU Css,[1]; vorinostat 100 mg BID dose group,3 µg/mL
same,Median 5-FU AUC,[1]; vorinostat 100 mg dose group,14 µg·h/mL
same,median 5-FU Css,[1]; vorinostat 200 mg BID dose group,16 µg/mL
same,Median 5-FU AUC,[1]; vorinostat 200 mg dose group,26 µg·h/mL
same,median 5-FU Css,[1]; vorinostat 300 mg BID dose group,20 µg/mL
same,Median 5-FU AUC,[1]; vorinostat 300 mg dose group,35 µg·h/mL
same,median 5-FU Css,[1]; vorinostat 400 mg BID dose group,23 µg/mL
same,Median 5-FU AUC,[1]; vorinostat 400 mg dose group,44 µg·h/mL
"O=C(CCCCCCC(=O)Nc1ccccc1)NO [vorinostat, Suberoylanilide Hydroxamic Acid]",Down-regulation of TS expression,"[2]; in vitro and in vivo models, Q-PCR analysis",≤ 100 fold
same,Vorinostat concentration required for effective TS down-regulation,"[2]; pre-clinical studies, 24 hours of vorinostat exposure",≥ 5 µM
same,Cmax,[3],> 20 µM
same,Neutropenia G3 (patients),[4]; [14],2
same,Thrombocytopenia G4 (patients),[4]; [14],2
same,Grade 3-4 thrombocytopenia (patients),[4]; [15],5
same,Grade 3-4 thrombocytopenia (share of patients),[4]; [15],24%
same,Patients with no change in TS staining pattern (IHC),"[5]; 6 paired samples, pre-treatment vs 4th day of vorinostat, cycle 1",4
same,Change in TS staining intensity (IHC),[5]; one patient at DL1 (vorinostat 100 mg PO BID),decreased intensity from strong to weak
same,Change in TS staining intensity (IHC),[5]; one patient at DL4 (vorinostat 400 mg PO BID),increase in intensity from weak to strong
same,Objective response,[6],No patient developed an objective response
same,Patients with confirmed stable disease,[6],5
same,Patients with stable disease on 2-month staging CT scan,[6],Eleven
same,AUC,[7]; [16],2.5 µM·h
same,Tmax,[7]; [16],2.4 h
same,half-life,"[7]; serum, 100 mg, t1/2, vorinostat 100 mg PO BID, Day 1, serum, mean",90 min
same,AUC,"[7]; serum, 200 mg, vorinostat 200 mg PO BID, Day 1, serum, mean",1.9 µM·h
same,AUC,[7]; [17],3.3 µM·h
same,Cmax,"[7]; serum, 200 mg, Cmax, vorinostat 200 mg PO BID, Day 1, serum, mean",816 nM
same,Cmax,"[7]; serum, 200 mg, Cmax, vorinostat 200 mg PO BID, Day 5 (with FOLFOX), serum, mean",894 nM
same,Tmax,[7]; [17],2.7 h
same,half-life,"[7]; serum, 200 mg, t1/2, vorinostat 200 mg PO BID, Day 1, serum, mean",72 min
same,AUC,[7]; [18],4.4 µM·h
same,AUC,[7]; [19],6.8 µM·h
same,Cmax,"[7]; serum, 300 mg, Cmax, vorinostat 300 mg PO BID, Day 1, serum, mean",1460 nM
same,Cmax,"[7]; serum, 300 mg, Cmax, vorinostat 300 mg PO BID, Day 5 (with FOLFOX), serum, mean",950 nM
same,Tmax,[7]; [18],1.6 h
same,Tmax,[7]; [19],2.4 h
same,half-life,"[7]; serum, 300 mg, t1/2, vorinostat 300 mg PO BID, Day 1, serum, mean",138 min
same,half-life,"[7]; serum, 300 mg, t1/2, vorinostat 300 mg PO BID, Day 5 (with FOLFOX), serum, mean",138 min
same,AUC,[7]; [20],4.5 µM·h
same,AUC,[7]; [21],7.4 µM·h
same,Cmax,"[7]; serum, 400 mg, Cmax, vorinostat 400 mg PO BID, Day 1, serum, mean",1510 nM
same,Cmax,"[7]; serum, 400 mg, Cmax, vorinostat 400 mg PO BID, Day 5 (with FOLFOX), serum, mean",1480 nM
same,Tmax,[7]; [20],1.9 h
same,Tmax,[7]; [21],2.8 h
same,half-life,"[7]; serum, 400 mg, t1/2, vorinostat 400 mg PO BID, Day 1, serum, mean",222 min
same,half-life,"[7]; serum, 400 mg, t1/2, vorinostat 400 mg PO BID, Day 5 (with FOLFOX), serum, mean",132 min
same,Cmax,"[7]; serum, Cmax of vorinostat, at all dose levels (100-400 mg PO BID)",< 2000 nM
same,CLapp,"[7]; vorinostat 100 mg PO BID, Day 1, serum, mean",189 L/h
same,CLapp,"[7]; vorinostat 100 mg PO BID, Day 5 (with FOLFOX), serum, mean",202 L/h
same,CLapp,"[7]; vorinostat 200 mg PO BID, Day 1, serum, mean",400 L/h
same,CLapp,"[7]; vorinostat 200 mg PO BID, Day 5 (with FOLFOX), serum, mean",231 L/h
same,CLapp,"[7]; vorinostat 300 mg PO BID, Day 1, serum, mean",285 L/h
same,CLapp,"[7]; vorinostat 300 mg PO BID, Day 5 (with FOLFOX), serum, mean",225 L/h
same,CLapp,"[7]; vorinostat 400 mg PO BID, Day 1, serum, mean",345 L/h
same,CLapp,"[7]; vorinostat 400 mg PO BID, Day 5 (with FOLFOX), serum, mean",211 L/h
same,"Change in vorinostat Clapp, day 5 compared to day 1","[7]; within patients, 14 patients, p=0.003",significant decrease
same,"Change in vorinostat AUC, day 5 compared to day 1","[7]; within patients, 14 patients, p=0.005",significant increase
same,"Change in vorinostat Tmax, day 5 compared to day 1","[7]; within patients, 19 patients, p=0.02",statistically significant increase
same,Patients with DLT,"[8]; DL1 vorinostat 100 mg PO BID + FOLFOX, 3 evaluable patients, cycle 1",None
same,Patients with DLT,"[8]; DL2 vorinostat 200 mg PO BID + FOLFOX, 3 patients, cycle 1",without any DLT
same,"Patients with DLT (fatigue, anorexia, dehydration)","[8]; DL3 vorinostat 300 mg PO BID + FOLFOX, evaluable patients, cycle 1",One of 10
same,Tolerability of dose-level,[8]; DL4 vorinostat 400 mg PO BID + FOLFOX,intolerable
same,Patients with DLT (grade 3 fatigue; grade 3 diarrhea in one),"[8]; DL4 vorinostat 400 mg PO BID + FOLFOX, cycle 1",2 of 4
same,MTD of vorinostat in combination with FOLFOX,"[8]; x 1 week every two weeks, FOLFOX on days 4 and 5",300 mg PO BID
same,Patients without any change in TS expression (RT-PCR),[9]; 6 patients with paired biopsies,four
same,Patients with down-regulation of TS (RT-PCR),"[9]; paired tumor biopsies, day 4 of vorinostat vs pre-treatment (DL1 and DL4)",2 of 6
same,Decrease in TS gene expression,[9]; patient at DL1 (vorinostat 100 mg PO BID),~50%
same,TS gene expression relative to β-actin,"[9]; patient at DL1, before vorinostat",0.92
same,TS gene expression relative to β-actin,"[9]; patient at DL1, following vorinostat treatment",0.45
same,Decrease in TS gene expression,[9]; patient at DL4 (vorinostat 400 mg PO BID),approximately 33%
same,TS gene expression relative to β-actin,"[9]; patient at DL4, before vorinostat",2.27
same,TS gene expression relative to β-actin,"[9]; patient at DL4, following vorinostat treatment",1.58
